Laboratory results reported in patent US8598211B2, “Carboxamide compounds and their use as calpain inhibitors IV” (AbbVie Inc., priority 2009, dated 2013).

How the values were obtained:
Assay type in all cases: biochemical
cathepsin L = biological target: T1, cathepsin L (Homo sapiens, UniProt P07711); test: Cathepsin L kinetic fluorescence enzyme inhibition assay; conditions: selectivity ratio versus calpain
T1 construct: cathepsin L—isolated from human liver; purchased Calbiochem 219402; host or cells: human liver (natural source)
Description: 1 nM cathepsin L—isolated from human liver (Calbiochem #219402), 2 μM Z-Phe-Arg-AMC (Bachem #I-1160) as substrate in 50 mM MES, 2 mM EDTA, 0.05% Brij 35, 2.5 mM L-cysteine, pH 6.0, room temperature.

calpain-I = biological target: T2, calpain-I (Homo sapiens, UniProt P07384); test: Calpain I kinetic fluorescence enzyme inhibition assay; conditions: calpain-I from human erythrocytes, Suc-Leu-Tyr-AMC, pH 7.3; apparent Ki from IC50 by Cheng-Prussoff
T2 construct: calpain-I—isolated from human erythrocytes; purchased Calbiochem 208713; host or cells: human erythrocytes (natural source)
T2 sequence (P07384 1-714): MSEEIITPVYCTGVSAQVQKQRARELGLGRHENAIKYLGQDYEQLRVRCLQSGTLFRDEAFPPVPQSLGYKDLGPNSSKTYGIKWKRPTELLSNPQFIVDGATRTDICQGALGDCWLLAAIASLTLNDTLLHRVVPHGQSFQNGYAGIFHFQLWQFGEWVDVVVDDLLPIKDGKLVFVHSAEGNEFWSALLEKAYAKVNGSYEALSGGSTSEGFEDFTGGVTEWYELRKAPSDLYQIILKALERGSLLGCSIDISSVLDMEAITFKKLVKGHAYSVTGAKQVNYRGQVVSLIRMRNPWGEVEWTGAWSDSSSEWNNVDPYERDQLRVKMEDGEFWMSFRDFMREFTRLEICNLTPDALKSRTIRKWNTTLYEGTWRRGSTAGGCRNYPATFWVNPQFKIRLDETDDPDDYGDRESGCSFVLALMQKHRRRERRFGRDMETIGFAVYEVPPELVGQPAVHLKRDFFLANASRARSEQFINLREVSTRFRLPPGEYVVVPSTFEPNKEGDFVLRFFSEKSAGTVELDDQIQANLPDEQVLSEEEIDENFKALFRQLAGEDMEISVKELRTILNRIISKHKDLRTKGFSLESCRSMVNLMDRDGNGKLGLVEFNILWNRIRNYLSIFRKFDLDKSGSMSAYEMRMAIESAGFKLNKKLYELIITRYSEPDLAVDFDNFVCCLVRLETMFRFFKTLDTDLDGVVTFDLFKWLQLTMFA
T2 sequence (P04632 1-268 partner): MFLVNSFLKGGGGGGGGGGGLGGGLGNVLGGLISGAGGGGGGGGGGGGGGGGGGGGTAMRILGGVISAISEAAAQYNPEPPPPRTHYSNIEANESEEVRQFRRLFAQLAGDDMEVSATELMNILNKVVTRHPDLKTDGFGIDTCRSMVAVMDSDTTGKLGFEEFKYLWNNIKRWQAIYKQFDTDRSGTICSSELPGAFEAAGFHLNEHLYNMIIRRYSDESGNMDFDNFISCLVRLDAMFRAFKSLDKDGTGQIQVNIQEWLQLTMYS
Description: Testing for blockade of the corresponding enzymic activities was carried out by means of kinetic fluorescence assays (excitation 390 nm, emission 460 nm).
Apparent Ki values were calculated from the experimentally determined IC50 values by the Cheng-Prussoff relation assuming a reversible competitive enzyme inhibition.
20 nM calpain-I—isolated from human erythrocytes (Calbiochem #208713), 100 μM Suc-Leu-Tyr-AMC (Bachem #I-1355) as substrate in buffer with 62 mM imidazole, 0.3 mM CaCl2, 0.10% CHAPS, 0.05% BSA, 1 mM DTT at pH 7.3 and room temperature.

cathepsin B = biological target: T3, cathepsin B (Homo sapiens, UniProt P07858); test: Cathepsin B kinetic fluorescence enzyme inhibition assay; conditions: selectivity ratio versus calpain
T3 construct: cathepsin B—isolated from human liver; purchased Calbiochem 219362; host or cells: human liver (natural source)
Description: 0.25 nM cathepsin B—isolated from human liver (Calbiochem #219362), 100 μM Z-Phe-Arg-AMC (Bachem #I-1160) as substrate 50 mM MES, 2 mM EDTA, 0.05% Brij 35, 2.5 mM L-cysteine, pH 6.0, room temperature.

cathepsin K = biological target: T4, cathepsin K (Homo sapiens, UniProt P43235); test: Cathepsin K kinetic fluorescence enzyme inhibition assay; conditions: selectivity ratio versus calpain
T4 construct: purchased Calbiochem 342001; host or cells: E. coli
T4 sequence (P43235 115-329): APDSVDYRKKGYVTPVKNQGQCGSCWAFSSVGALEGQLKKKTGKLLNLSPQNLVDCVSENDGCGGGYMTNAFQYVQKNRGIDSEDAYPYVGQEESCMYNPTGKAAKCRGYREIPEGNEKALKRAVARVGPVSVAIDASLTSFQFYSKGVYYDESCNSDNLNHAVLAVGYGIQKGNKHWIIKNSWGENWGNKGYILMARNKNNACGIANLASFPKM
Description: 3 nM cathepsin K—activated from recombinant human procathepsin K from E. coli (Calbiochem #342001), 10 μM Z-Gly-Pro-Arg-AMC (Biomol #P-142) as substrate in 50 mM MES, 2 mM EDTA, 0.05% Brij 35, 2.5 mM L-cysteine, pH 6.0, room temperature.

cathepsin S = biological target: T5, cathepsin S (Homo sapiens, UniProt P25774); test: Cathepsin S kinetic fluorescence enzyme inhibition assay; conditions: selectivity ratio versus calpain
T5 construct: purchased Calbiochem 219343; host or cells: E. coli
T5 sequence (P25774 115-331): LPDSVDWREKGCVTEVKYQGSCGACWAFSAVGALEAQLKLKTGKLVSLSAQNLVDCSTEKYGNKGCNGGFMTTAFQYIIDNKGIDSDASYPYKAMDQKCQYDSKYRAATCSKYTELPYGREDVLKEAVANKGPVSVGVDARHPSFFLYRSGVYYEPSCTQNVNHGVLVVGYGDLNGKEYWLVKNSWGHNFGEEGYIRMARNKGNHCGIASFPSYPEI
Description: 0.5 nM recombinant human cathepsin S from E. coli (Calbiochem #219343), 20 μM Z-Val-Val-Arg-AMC (Bachem #I-1540) as substrate in 50 mM MES, 2 mM EDTA, 0.05% Brij 35, 2.5 mM L-cysteine, pH 6.0, room temperature.

T1 sequence (P07711 114-333): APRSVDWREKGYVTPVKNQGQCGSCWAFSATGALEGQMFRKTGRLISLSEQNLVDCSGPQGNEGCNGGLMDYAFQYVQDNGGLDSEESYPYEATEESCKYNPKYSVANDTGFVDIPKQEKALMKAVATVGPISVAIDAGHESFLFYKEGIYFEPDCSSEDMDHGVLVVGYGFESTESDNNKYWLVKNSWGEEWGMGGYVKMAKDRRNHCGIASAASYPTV

| SMILES | Sel cat. L (Ki(cathepsin L)/Ki(calpain) ratio) (cathepsin L) | Ki (calpain-I) | Sel cat. B (Ki(cathepsin B)/Ki(calpain) ratio) (cathepsin B) | Sel cat. K (Ki(cathepsin K)/Ki(calpain) ratio) (cathepsin K) | Sel cat. S (Ki(cathepsin S)/Ki(calpain) ratio) (cathepsin S) |
| --- | --- | --- | --- | --- | --- |
| O=C(NCc1nc2ccccc2[nH]1)C(=O)C(Cc1ccccc1)NC(=O)c1cccnc1-n1ccc(-c2ccccc2)n1 (stereo not drawn) [Example 20, N-{4-[(1H-Benzimidazol-2-ylmethyl)amino]-3,4-dioxo-1-phenyl-2-butanyl}-2-(3-phenyl-1H-pyrazol-1-yl)nicotinamide] | ++ (10<Ki(cathepsin L)/Ki(calpain)≦50) | 800 to 1000 nM | ++ (9<Ki(cathepsin B)/Ki(calpain)≦30) | ++ (9<Ki(cathepsin K)/Ki(calpain)≦30) | ++ (10<Ki(cathepsin S)/Ki(calpain)≦50) |
| O=C(NC1CC1)C(=O)C(Cc1ccccc1)NC(=O)c1cccnc1-n1ccc(-c2cccc(N3CCOCC3)c2)n1 (stereo not drawn) [Example 26, N-[4-(Cyclopropylamino)-3,4-dioxo-1-phenyl-2-butanyl]-2-{3-[3-(4-morpholinyl)phenyl]-1H-pyrazol-1-yl}nicotinamide] | ++ (10<Ki(cathepsin L)/Ki(calpain)≦50) | 400 to 800 nM | + (5≦Ki(cathepsin B)/Ki(calpain)≦9) | ++ (9<Ki(cathepsin K)/Ki(calpain)≦30) | ++ (10<Ki(cathepsin S)/Ki(calpain)≦50) |
| O=C(NC1CC1)C(=O)C(Cc1ccccc1)NC(=O)[C@H]1CCC(=O)N1Cc1ccccc1F (mixture of isomers) [Example 30, (2R)—N-(4-(cyclopropylamino)-3,4-dioxo-1-phenylbutan-2-yl)-1-(2-fluorobenzyl)-5-oxopyrrolidine-2-carboxamide] | ++ (10<Ki(cathepsin L)/Ki(calpain)≦50) | 400 to 800 nM | ++ (9<Ki(cathepsin B)/Ki(calpain)≦30) | +++ (Ki(cathepsin K)/Ki(calpain) ratio of >30) | +++ (Ki(cathepsin S)/Ki(calpain) ratio of >50) |
| O=C(NCCc1ccccc1)C(=O)C(Cc1ccccc1)NC(=O)c1cccnc1-n1ccc(-c2ccc(F)cc2)n1 (stereo not drawn) [Example 1, N-{3,4-Dioxo-1-phenyl-4-[(2-phenylethyl)amino]butan-2-yl}-2-[3-(4-fluorophenyl)-1H-pyrazol-1-yl]pyridine-3-carboxamide] | ++ (10<Ki(cathepsin L)/Ki(calpain)≦50) | 250 to 400 nM | ++ (9<Ki(cathepsin B)/Ki(calpain)≦30) | ++ (9<Ki(cathepsin K)/Ki(calpain)≦30) | ++ (10<Ki(cathepsin S)/Ki(calpain)≦50) |

More lines, now with the values ahead:

| Sel cat. L (Ki(cathepsin L)/Ki(calpain) ratio) (cathepsin L) | Ki (calpain-I) | Sel cat. B (Ki(cathepsin B)/Ki(calpain) ratio) (cathepsin B) | Sel cat. K (Ki(cathepsin K)/Ki(calpain) ratio) (cathepsin K) | Sel cat. S (Ki(cathepsin S)/Ki(calpain) ratio) (cathepsin S) | SMILES |
| --- | --- | --- | --- | --- | --- |
| ++ (10<Ki(cathepsin L)/Ki(calpain)≦50) | 250 to 400 nM | ++ (9<Ki(cathepsin B)/Ki(calpain)≦30) | ++ (9<Ki(cathepsin K)/Ki(calpain)≦30) | ++ (10<Ki(cathepsin S)/Ki(calpain)≦50) | COc1ccc(CC(NC(=O)c2cccnc2-n2ccc(-c3ccccc3)n2)C(=O)C(=O)NC2CC2)cc1 (stereo not drawn) [Example 22, N-[4-(Cyclopropylamino)-1-(4-methoxyphenyl)-3,4-dioxo-2-butanyl]-2-(3-phenyl-1H-pyrazol-1-yl)nicotinamide] |
| ++ (10<Ki(cathepsin L)/Ki(calpain)≦50) | 250 to 400 nM | ++ (9<Ki(cathepsin B)/Ki(calpain)≦30) | ++ (9<Ki(cathepsin K)/Ki(calpain)≦30) | ++ (10<Ki(cathepsin S)/Ki(calpain)≦50) | O=C(NCCc1ccccn1)C(=O)C(Cc1ccccc1)NC(=O)c1cccnc1-n1ccc(-c2ccc(F)cc2)n1 (stereo not drawn) [Example 3, N-(3,4-Dioxo-1-phenyl-4-{[2-(pyridin-2-yl)ethyl]amino}butan-2-yl)-2-[3-(4-fluorophenyl)-1H-pyrazol-1-yl]pyridine-3-carboxamide] |
